For 66 compounds, EC50 results are on record in BindingDB's records for doi:10.7270/Q2TX3CTT (Broad Institute, 2010).

Where a name gives a salt, the structure may show the parent alone.

In the assay the target is Glycogen synthase kinase-3 beta (Homo sapiens, UniProt P49841). In words: GSK3beta kinase inhibitor potency, dose response, biochemical, luminescence, cell-free homogeneous, retest (AID 434954).
Sequence of Glycogen synthase kinase-3 beta (P49841 whole entry): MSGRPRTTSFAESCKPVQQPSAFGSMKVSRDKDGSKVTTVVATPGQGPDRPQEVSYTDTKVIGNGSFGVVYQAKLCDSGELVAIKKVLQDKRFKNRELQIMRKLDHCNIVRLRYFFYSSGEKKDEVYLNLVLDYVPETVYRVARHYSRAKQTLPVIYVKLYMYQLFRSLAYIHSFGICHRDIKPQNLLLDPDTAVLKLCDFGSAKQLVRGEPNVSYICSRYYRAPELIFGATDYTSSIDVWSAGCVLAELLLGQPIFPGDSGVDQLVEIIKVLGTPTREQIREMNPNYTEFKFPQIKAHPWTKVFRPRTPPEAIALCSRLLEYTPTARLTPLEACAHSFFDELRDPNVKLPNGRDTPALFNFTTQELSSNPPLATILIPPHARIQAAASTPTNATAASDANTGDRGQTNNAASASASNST
A word on the EC50: it is the midpoint of the concentration-response curve. The low end stands for an effect from little substance, the high end for a need for much substance. On to `Cc1csc(NC(=O)CN2C(=O)c3ccccc3C2=O)c1C(N)=O` [2-[[2-(1,3-dioxo-2-isoindolyl)-1-oxoethyl]amino]-4-methyl-3-thiophenecarboxamide], for which the EC50 was more than 300 µM.

Regarding `Cc1ccccc1NC(=O)Nc1ccccn1` [1-(2-methylphenyl)-3-pyridin-2-ylurea], the half-maximal effective concentration (EC50) is more than 300 µM.

Compound `CCc1ccc(Oc2ncnc(N)c2[N+](=O)[O-])cc1` [6-(4-ethylphenoxy)-5-nitro-4-pyrimidinamine] registered a 50% effective concentration (EC50) of more than 300 µM.

In turn, `CCCCCc1cc(O)c2c(C)cc(=O)oc2c1` [5-hydroxy-4-methyl-7-pentyl-1-benzopyran-2-one] returned a half-maximal effective concentration (EC50) of more than 300 µM.

The compound `O=C(Nc1cccnc1)c1sc(Nc2ccccc2)nc1-c1ccccc1` [SMR000261858] showed a half-maximal effective concentration (EC50) of more than 300 µM.

Regarding `CC(=NNC(=O)c1nnn(-c2nonc2N)c1CN1CCc2ccccc21)c1ccccc1O` [MLS001076839], the EC50 was more than 300 µM.

`Nc1nc(NCCCN2CCOCC2)nc(Nc2ccccc2)c1[N+](=O)[O-]` [SMR000219678] registered a 50% effective concentration (EC50) of 2.24 µM.

`COCCOC(=O)C1C(C)=Nc2ncnn2C1c1ccccc1` (stereo unspecified) registered an EC50 of more than 300 µM.

The compound `Clc1ccc(CSc2nnc(-c3ccncc3)o2)cc1` [2-[(4-chlorobenzyl)thio]-5-(4-pyridyl)-1,3,4-oxadiazole] returned an EC50 of 25.9 µM.

Turning to `CCn1nc(NC(=O)CC(C)C)c2cc3ccc(C)cc3nc21` [N-(1-ethyl-7-methylpyrazolo[3,4-b]quinolin-3-yl)-3-methylbutanamide], the EC50 was more than 300 µM.

In the case of `CCCCCOC(=O)C1C(C)=Nc2ncnn2C1c1cccs1` (stereo unspecified), the concentration giving a half-maximal response (EC50) is more than 300 µM.

In turn, `Cc1cc(Br)ccc1NC(=O)CN1C(=O)CCC1=O` came in with a concentration for a half-maximal effect (EC50) of more than 300 µM.

In turn, `COc1ccc(-c2nn(-c3ccccc3)cc2C=NNC(=O)c2ccc(Br)o2)cc1` [5-bromo-N-[[3-(4-methoxyphenyl)-1-phenyl-4-pyrazolyl]methylideneamino]-2-furancarboxamide] displayed an EC50 of more than 300 µM.

`O=C(Nc1cccc2c1C(=O)NC2=O)c1ccccc1[N+](=O)[O-]` [N-(1,3-dioxo-4-isoindolyl)-2-nitrobenzamide]: the EC50 is more than 300 µM.

Compound `CN(C)Cc1c(O)ccc2c3c(c(=O)oc12)CCCCC3` [4-Dimethylaminomethyl-3-hydroxy-8,9,10,11-tetrahydro-7H-cyclohepta[c]chromen-6-one] showed a half-maximal effective concentration (EC50) of 78.8 µM.

On to `O=c1cccc2oc(-c3ccccc3Cl)cc(O)c1-2` [2-(2-chlorophenyl)-5-hydroxy-1-benzopyran-4-one], for which the EC50 was more than 300 µM.

The compound `Cc1ccc(S(=O)(=O)NCC2COc3ccccc3O2)cc1` (stereo unspecified) [N-(2,3-Dihydro-benzo[1,4]dioxin-2-ylmethyl)-4-methyl-benzenesulfonamide] had an EC50 of more than 300 µM.

The compound `CCSc1nnc(-c2cccs2)o1` [2-ethylsulfanyl-5-thiophen-2-yl-1,3,4-oxadiazole] returned a 50% effective concentration (EC50) of more than 300 µM.

With `COc1ccc2nc(C)cc(N3CCN(c4ccccc4)CC3)c2c1` [SMR000595708], the EC50 amounted to 29.5 µM. This counts as double-digit micromolar.

Consider `COc1cc(CNC=C2C(=O)NC(=O)N(C(C)(C)C)C2=O)cc(OC)c1` [(5Z)-1-tert-butyl-5-[[(3,5-dimethoxyphenyl)methylamino]methylidene]-1,3-diazinane-2,4,6-trione], for which the 50% effective concentration (EC50) was more than 300 µM.

Compound `COc1ccc(CC(=O)Nc2ncc([N+](=O)[O-])s2)cc1OC` [SMR000288398] yielded a 50% effective concentration (EC50) of 8.4 µM.

On to `Cc1ccc(N2CSC3=C(C#N)C(c4cccs4)CC(=O)N3C2)cc1` (stereo unspecified) [MLS000522486], for which the half-maximal effective concentration (EC50) is more than 300 µM.

For the compound `CC(C)c1ccc(NC2=CC(=O)CC(C)(C)C2)cc1` [SMR000558851], the EC50 was more than 300 µM.

With `O=C(Cc1ccc(F)cc1)NN=Cc1ccc(-c2ccc(Cl)c(C(=O)O)c2)o1`, the half-maximal effective concentration (EC50) was more than 300 µM.

Take `O=C(CN1C(=O)c2ccccc2C1=O)Nc1ccccc1F` [2-[1,3-bis(oxidanylidene)isoindol-2-yl]-N-(2-fluorophenyl)ethanamide]: the EC50 was more than 300 µM.

In the case of `CCOC(=O)C1C(C)=Nc2ncnn2C1c1cccnc1` (stereo unspecified), the EC50 was more than 300 µM.

In turn, `CN(Cc1c(C(=O)NN=Cc2ccccc2F)nnn1-c1nonc1N)c1ccccc1` [MLS001141029] returned an EC50 of more than 300 µM.

`COc1ccc(CNC(=O)CN(Cc2ccco2)C(=O)CCC(=O)Nc2ccccn2)cc1` [SMR000600509] returned an EC50 of more than 300 µM.

`CCSc1nc(-c2ccccc2)c(C#N)c(=O)[nH]1` [2-ethylsulfanyl-4-oxidanylidene-6-phenyl-1H-pyrimidine-5-carbonitrile]: the EC50 is more than 300 µM.

In turn, `c1ccc2c(Nc3nc(-c4ccncc4)nc4ccccc34)cccc2c1` [N-naphthalen-1-yl-2-pyridin-4-ylquinazolin-4-amine] showed an EC50 of more than 300 µM.

`CCn1c(SCC(=O)Nc2ccc(NC(C)=O)cc2)nnc1C1CC1` [N-(4-acetamidophenyl)-2-[(5-cyclopropyl-4-ethyl-1,2,4-triazol-3-yl)sulfanyl]ethanamide] registered an EC50 of more than 300 µM.

In turn, `O=NCc1ccc(SCc2ccccc2)c([N+](=O)[O-])c1` [SMR000169144] returned a concentration giving a half-maximal response (EC50) of more than 300 µM.

Regarding `CC1(C)CC2CC(C)(CN2S(=O)(=O)c2ccc(C(=O)Nc3ccc(Cl)c(S(=O)(=O)N4CCOCC4)c3)cc2)C1` (stereo unspecified) [N-[4-chloro-3-(4-morpholinylsulfonyl)phenyl]-4-[(3,3,5-trimethyl-7-azabicyclo[3.2.1]octan-7-yl)sulfonyl]benzamide], the EC50 is more than 300 µM.

The compound `COC1=C/C(=C/c2c(N)n3cc(C)sc3nc2=O)C=CC1=O` showed a concentration giving a half-maximal response (EC50) of more than 300 µM.

In the case of `Cc1c(O)c(CN2CCCCC2)cc2c1oc(=O)c1ccccc12` [MLS000551544], the concentration for a half-maximal effect (EC50) was more than 300 µM.

In turn, `O=C(O)CCn1cc(C=C2C(=O)NC(=S)NC2=O)c(-c2ccccc2)n1` [MLS000707577] returned an EC50 of more than 300 µM.

In turn, `CCCCC(=O)Nc1cc(C)c(NC(=O)c2cccs2)cn1` [N-[4-methyl-6-(1-oxopentylamino)-3-pyridinyl]-2-thiophenecarboxamide] yielded an EC50 of more than 300 µM.

`CCN(CC)CCOC(=O)c1ccc(NC(=S)NC(=O)C=Cc2ccco2)cc1` [MLS001178772] displayed an EC50 of more than 300 µM.

The compound `O=C(NN=Cc1ccco1)Nc1cccc(Cl)c1` [SMR000203570] had an EC50 of 38.1 µM.

For the compound `COc1cccc(C(N)=O)c1`, the EC50 is more than 300 µM.

In turn, `CCOc1ccccc1NC(=O)CSc1nnc(C2CC2)n1CC` [2-[(5-cyclopropyl-4-ethyl-1,2,4-triazol-3-yl)thio]-N-(2-ethoxyphenyl)acetamide] registered an EC50 of more than 300 µM.

In turn, `O=C1NC(c2cccs2)Nc2sc3c(c21)CCCC3` (stereo unspecified) [2-thiophen-2-yl-2,3,5,6,7,8-hexahydro-1H-[1]benzothiolo[2,3-d]pyrimidin-4-one] displayed an EC50 of more than 300 µM.

The compound `COc1ccc(-c2nn(-c3ccccc3)cc2CN=Nc2ccc(Cl)c(C(=O)O)c2)cc1OC` [SMR000371971] yielded an EC50 of more than 300 µM.

The compound `CCOC(=O)C1CCN(c2cc(C)nc3ccc(OC)cc23)CC1` [MLS000772886] had a concentration giving a half-maximal response (EC50) of more than 300 µM.

In the case of `CCOC(=O)C1C(C)=Nc2ncnn2C1c1cc(OC)ccc1OC` (stereo unspecified) [MLS000112815], the EC50 is more than 300 µM.

`CCOC(=O)c1cnc2ccc(C(=O)OC)cc2c1Nc1ccc(C(=O)O)cc1` [SMR000273135] registered a half-maximal effective concentration (EC50) of more than 300 µM.

Compound `COc1ccc(OC)c(C(=O)c2coc3ccc(O)c(CN(C)C)c23)c1` [(2,5-dimethoxyphenyl)-[4-[(dimethylamino)methyl]-5-oxidanyl-1-benzofuran-3-yl]methanone;hydrochloride] yielded a 50% effective concentration (EC50) of more than 300 µM.

Compound `Cc1cc(C)n(S(=O)(=O)c2ccc(C)c(C)c2)n1` [SMR000515396] displayed an EC50 of more than 300 µM.

Regarding `O=C1Nc2cc(C(=O)NCCCN3CCCC3)ccc2S/C1=C/c1ccccc1F` [(2E)-2-[(2-fluorophenyl)methylidene]-3-oxo-N-(3-pyrrolidin-1-ylpropyl)-4H-1,4-benzothiazine-6-carboxamide], the EC50 came out at 6.99 µM.

`c1csc(CN=Nc2ncnc3nc[nH]c23)c1` [MLS000419130] yielded an EC50 of 19.7 µM.

Compound `CC1(C)Oc2ccc(C(=O)N3CCOCC3)cc2N(CC(=O)N2CCOCC2)C1=O` gave a half-maximal effective concentration (EC50) of more than 300 µM.

Take `O=[N+]([O-])c1c(-c2cn[nH]c2)n[nH]c1-c1cn[nH]c1` [SMR000289595]: the EC50 is 13.6 µM.

In the case of `COc1cccc(NC2=CC(=O)CC(C)(C)C2)c1`, the concentration for a half-maximal effect (EC50) is more than 300 µM.

In turn, `Nc1nc(N)nc(-c2cc(Cl)ccc2Cl)n1` [SMR000471621] had an EC50 of more than 300 µM.

For `O=C1Nc2ccccc2/C1=N/c1cccc([N+](=O)[O-])c1` [MLS001194693], the EC50 was more than 300 µM.

For the compound `COc1ccc(Nc2nc(NCCN3CCOCC3)nc(Nc3ccc(OC)cc3)n2)cc1`, the half-maximal effective concentration (EC50) was more than 300 µM.

In the case of `C=C(Cl)COc1ccc2c(CCCC)cc(=O)oc2c1` [4-butyl-7-(2-chloranylprop-2-enoxy)chromen-2-one], the concentration for a half-maximal effect (EC50) is more than 300 µM.

`COc1ccc(NC(=O)c2sc(SC)nc2N)cc1` [SMR000011170] yielded an EC50 of more than 300 µM.

Consider `CCOC(=O)c1c(C)[nH]c(C)c1S(=O)(=O)N(C)CC(=O)Nc1cccc(F)c1` [ethyl 4-[[2-(3-fluoroanilino)-2-oxoethyl]-methylsulfamoyl]-2,5-dimethyl-1H-pyrrole-3-carboxylate], for which the half-maximal effective concentration (EC50) is more than 300 µM.

`COc1ccc(Oc2c(C)oc3c(CN(C)C)c(O)ccc3c2=O)cc1`: the 50% effective concentration (EC50) was more than 300 µM.

`c1ccc(-c2nnc(-c3ccncc3)nc2-c2ccccc2)cc1` displayed an EC50 of more than 300 µM.

`COCc1c(C(=O)Nc2ccc(Cl)cc2F)oc2ccccc12` [N-(4-chloro-2-fluorophenyl)-3-(methoxymethyl)-2-benzofurancarboxamide] showed a concentration for a half-maximal effect (EC50) of more than 300 µM.

Compound `O=Cc1cn(-c2ccccc2)nc1-c1ccc(F)cc1` [3-(4-fluorophenyl)-1-phenyl-1H-pyrazole-4-carbaldehyde] had an EC50 of more than 300 µM.

In turn, `COc1cc(C=C2SC(Nc3ccc(O)cc3)=NC2=O)cc(OC)c1OC` [SMR000414809] had a concentration giving a half-maximal response (EC50) of more than 300 µM.

`CCOc1ccc(/C=C2\CCCc3c2nc2ccccc2c3C(=O)O)cc1OC` [SMR000688807] returned an EC50 of more than 300 µM.

On to `C[O+]=N[CH-]c1ccc(N2CCOCC2)c([N+](=O)[O-])c1` [N-methoxy-1-(4-morpholin-4-yl-3-nitro-phenyl)methanimine], for which the concentration for a half-maximal effect (EC50) is more than 300 µM.
